According to US6727252B1, “Methods of modulating serine/threonine protein kinase function with 5-azaquinoxaline-based compounds” (Zentaris AG, priority 1997, dated 2004):
Read-outs that look alike come from different tables or passages of the source.

Key:
[1] = test system: 3T3/H-Ras (NIH 3T3 clone 7 cells expressing genomic fragment of oncogenic H-Ras); assay: Growth of NIH 3T3 cells over expressing H-Ras (SRB); format: cell-based; conditions: Mus musculus, NIH3T3, 72 h; cell growth, 2% calf serum/DMEM, 3 days with compound
Protocol: The following assay measures growth rates for NIH-3T3 cells expressing RAS. The purpose of the assay is to determine the effects of compounds on the growth of NIH 3T3 cells over expressing H-Ras.
3T3/H-Ras (NIH 3T3 clone 7 cells expressing genomic fragment of oncogenic H-Ras).
2% calf serum/DMEM+2 mM glutamine, Pen/Strep
(§1) 1. Trypsinize cells. Transfer […] of cell suspension to 10 mL of isotone. Count cells with a Coulter Counter.
2. Dilute cells in growth medium to 60,000 cell/mL. Transfer 100 µL of cells to each well in a 96-well flat bottom plate to give 6000 cells/well.
3. Use half of plate (4 rows) for each comound and quadruplicate wells for each comound concentration, and a set of 4 wells for medium control.
(§2) 4. Gently shake plates to allow for uniform attachment of the cells.
(§3) 5. Incubate the plates at 37 C in a 10% CO2 incubator.
1. In a 96-well round bottom plate, add 120 µL of growth medium containing 2×final % DMSO found in highest screening concentration of compound to columns 1 to 11. For example, if the highest concentration is […], and this is made from a 100 mM stock, 1×DMSO is 0.1%, so 2×DMSO is 0.2%. This plate is used to titrate out the compound, 4 rows per compound.
2. In a sterile 15 mL tube, make a 2×solution of the highest screening concentration of compound in growth medium plus 2×DMSO. 1 mL per cell line is needed. The starting concentration of the compound is usually 100 µM but this concentration may vary depending upon the solubility of the compound.
3. Transfer 240 µL of the 2×starting compound solution to qudruplicate wells in column 12 of the 96-well round bottom plate. Do 1:2 serial dilutions across the plate from right to left by transferring […] from column 12 to column 11, column 11 to 10 and so on through column 2. Transfer 100 µL of compound dilutions, and 100 µL of medium in column 1, onto […] medium on cells in corresponding wells of 96-well flat bottom plate. Total volume per well should be […].
4. Return the plate to the incubattor and incubate for 3 days.
(§4) 1. Aspirate or pour off medium. Add […] cold 10% TCA to each well to fix cells. Incubate plate for at least 60 min. at 4 C.
(§5) 2. Discard TCA and rinse wells 5 times with tap water. Dry plates upside down on paper towels.
(§6) 3. Stain cells with 100 µL/well 0.4% SRB for 10 min.
4. Pour of SRB and rinse wells 5 times with 1% acetic acid. Dry plates completely upside down on paper towels.
(§7) 5. Solubilize dye with 100 µL/well 10 mM Tris base for 5-10 min. on shaker.
6. Read plates on Dynatech ELISA Plate REader at 570 nm with reference at 630 nm.

[2] = test system: A549 human lung carcinoma cells; assay: Growth of A549 cells (SRB); format: cell-based; conditions: cell growth
Protocol: The following assay measures growth rates for A549 cells. The purpose of the assay is to determine the effects of compounds on the growth of A549 human lung carcinoma cells. A549 cells are readily accessible from commercial sources, such as ATCC (CCL185). […]
as §1
2. Dilute cells in growth medium to 20,000 cell/mL. Transfer 100 µL of cells to each well in a 96-well flat bottom plate to give 2000 cells/well.
3. Use half of plate (4 rows) for each compound and quadruplicate wells for each compound concentration, and a set of 4 wells for medium control.
as §2, §3
1. In a 96 well-round bottom plate, add 120 µL of growth medium containing 2×final %DMSO found in highest screening concentration of compound to columns 1 to 11. For example, if the highest screening concentration is 100 µM, and this is made from a 100 mM stock, 1×DMSO is 0.1%, so 2×DMSO is 0.2%. This plate is used to titrate out the compound, 4 rows per compound.
2. In a sterile 15 mL tube, make a 2×solution of the highest screening concentration of compound in growth medium plus. 2×DMSO. 1 mL per cell line is needed. The starting concentration of the compound is usually 100 µM but this concentration may vary depending upon the solubility of the compound.
3. Transfer 240 µL of the 2×starting compound solution to quadruplicate wells in column 12 of the 96-well round bottom plate. Do 1:2 serial dilutions across the plate from right to left by transferring […] from column 12 to column 11, column 11 to 10 and so on through column
2. Transfer 100 µL of compound dilutions, and 100 µL of medium in column 1, onto […] medium on cells in corresponding wells of 96-well flat bottom plate. Total volume per well should be 200 L.
4. Return the plate to the incubator and incubate for 3 days.
as §4, §5, §6
4. Pour off SRB and rinse wells 5 times with 1% acetic acid. Dry plates completely upside down on paper towels.
as §7
6. Read plates on Dynatech ELISA Plate Reader at 570 nm with reference at 630 nm.

[3] = 2% FBS, read-out: IC50 (M) A549 (2% FBS)
[4] = growth medium 10% fetal calf serum in Ham's F12-K, read-out: IC50 (M) A549

melting point	IC50 [2, 3]	IC50 [2, 4]	SMILES	IC50 [1]
			Oc1ccc(-c2cnc3ccc(Nc4ccccc4)nc3n2)cc1 [Compound A-1, 6-Phenylamino-3-(4-hydroxyphenyl)-5-azaquinoxaline]	1.04 µM
271 to 273 °C	> 1e-05 M	2.51e-05 M	Oc1ccc(-c2cnc3ccc(NCc4ccccc4)nc3n2)cc1 [Compound A-2, 6-Benzylamino-3-(4-hydroxyphenyl)-5-Azaquinoxaline]	7.6 µM
	> 1e-05 M	2.38e-05 M	Fc1ccc(CNc2ccc3nc(-c4ccccc4)c(-c4ccccc4)nc3n2)cc1 [Compound A-6, 2,3-Diphenyl-6-(4-fluorobenzylamino)-5-azaquinoxaline]	13.5 µM
			Oc1ccc(-c2cnc3ccc(Nc4ccccc4Cl)nc3n2)cc1 [Compound A-36, 6-(2-Chlorophenylamino)3-(4-hydroxyphenyl)-5-azaquinoxaline]	0.18 µM
			Clc1ccccc1Nc1ccc2ncc(-c3ccccc3)nc2n1 [Compound A-77, 6-(2-Chlorophenylamino)-3-phenyl-5-azaquinoxaline]	0.7 µM
